According to PubChem BioAssay AID248 (DTP/NCI, 2004):
Several values for one entry are separate records, joined by “and”; a condition that tells them apart may be missing. Equal entries are not always repeated. Inconclusive results and toxic doses are left out. No stated cut-off is given here; in the data, active means T/C of 150% or more; inactive means T/C below 125%.

System: L1210 leukemia ip in BDF1 mice, survival T/C
Assay: NCI In Vivo Anticancer Drug Screen. Data for tumor model L1210 Leukemia (intraperitoneal) in B6D2F1 (BDF1) mice
Conditions: endpoint: mean survival time, higher = longer survival
Procedure, shortened: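 Transplanted-tumor mice were given test agent; controls received vehicle only. Survival readings from the two groups were divided (treated over control).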

[1] = dose: 100.0 mg/kg/injection, schedule: Q01DX009 (ip), vehicle: Klucel (hydroxypropylcellulose) (HPC)
[2] = dose: 200.0 mg/kg/injection, schedule: Q01DX009 (ip), vehicle: Klucel (hydroxypropylcellulose) (HPC)
[3] = dose: 400.0 mg/kg/injection, schedule: Q01DX009 (ip), vehicle: Klucel (hydroxypropylcellulose) (HPC)
[4] = dose: 100.0 mg/kg/injection, schedule: Q01DX001 (ip), vehicle: carboxymethylcellulose (CMC)
[5] = dose: 200.0 mg/kg/injection, schedule: Q01DX001 (ip), vehicle: carboxymethylcellulose (CMC)
[6] = dose: 400.0 mg/kg/injection, schedule: Q01DX001 (ip), vehicle: carboxymethylcellulose (CMC)
[7] = dose: 100.0 mg/kg/injection, schedule: Q04DX003 (ip), vehicle: saline with Tween-80
[8] = dose: 200.0 mg/kg/injection, schedule: Q04DX003 (ip), vehicle: saline with Tween-80
[9] = dose: 100.0 mg/kg/injection, schedule: Q01DX009 (ip), vehicle: saline

Measured: T/C

CCOC(=O)c1cnc(SC)nc1Nc1ccc(C)cc1C
inactive: [1] 96 % of control | [2] 101 % of control | [3] 109 % of control

O=C(COc1ccc2ccccc2c1)Nc1ccc[n+](Cc2ccc(S(=O)(=O)F)cc2)c1
inactive: dose: 100.0 mg/kg/injection, schedule: Q04DX003 (ip), vehicle: saline 106 % of control | dose: 200.0 mg/kg/injection, schedule: Q04DX003 (ip), vehicle: saline 90 % of control | dose: 400.0 mg/kg/injection, schedule: Q04DX003 (ip), vehicle: saline 94 % of control

C#CC(O)C1OC2OC(C)(C)OC2C1O (stereo not drawn)
inactive: dose: 100.0 mg/kg/injection, schedule: Q04DX003 (ip), vehicle: Klucel (hydroxypropylcellulose) (HPC) 101 % of control | [2] 97 % of control | dose: 200.0 mg/kg/injection, schedule: Q04DX003 (ip), vehicle: Klucel (hydroxypropylcellulose) (HPC) 101 % of control | [3] 96 % of control | dose: 400.0 mg/kg/injection, schedule: Q04DX003 (ip), vehicle: Klucel (hydroxypropylcellulose) (HPC) 113 % of control
active: [1] 173 % of control

OCCOc1nc(Cl)nc(Cl)c1Cl (tested in a mixture with another compound)
inactive: dose: 12.5 mg/kg/injection, schedule: Q01DX009 (ip), vehicle: Klucel (hydroxypropylcellulose) (HPC) 110 % of control | dose: 25.0 mg/kg/injection, schedule: Q01DX009 (ip), vehicle: Klucel (hydroxypropylcellulose) (HPC) 96 % of control | dose: 50.0 mg/kg/injection, schedule: Q01DX009 (ip), vehicle: Klucel (hydroxypropylcellulose) (HPC) 100 % of control and 91 % of control

CN(C)c1ccc(/C=N/Nc2nnc(N/N=C/c3ccc(N(C)C)cc3)c3ccccc23)cc1
inactive: dose: 50.0 mg/kg/injection, schedule: Q01DX001 (ip), vehicle: carboxymethylcellulose (CMC) 98 % of control and 91 % of control | [4] 86 % of control | [5] 93 % of control and 91 % of control | [6] 100 % of control and 104 % of control

CC(C)NC(=O)CS(=O)(=O)c1ccc(N)cc1
inactive: [7] 97 % of control | [8] 97 % of control | dose: 400.0 mg/kg/injection, schedule: Q04DX003 (ip), vehicle: saline with Tween-80 95 % of control

C/C(=N\Sc1ccccc1)c1ccccc1O
inactive: dose: 100.0 mg/kg/injection, schedule: Q04DX002 (ip), vehicle: other 102 % of control | dose: 200.0 mg/kg/injection, schedule: Q04DX002 (ip), vehicle: other 88 % of control

Cc1[nH]c(=O)ncc1CCOCc1ccccc1
inactive: [4] 104 % of control | [5] 109 % of control | [6] 104 % of control

O=Cc1ccc2c(c1)c1ccccc1n2C1OC(CO)C(O)C(O)C1O (stereo not drawn)
inactive: dose: 60.0 mg/kg/injection, schedule: Q04DX002 (ip), vehicle: DMSO 102 % of control | dose: 120.0 mg/kg/injection, schedule: Q04DX002 (ip), vehicle: DMSO 97 % of control

CCC(C)C(C(=O)OCCN(C)C)c1ccccc1 (stereo not drawn)
inactive: [7] 98 % of control | [8] 92 % of control

COc1cc(CCN2CCN(c3cc(C)ccc3Cl)CC2)cc(OC)c1OC
inactive: dose: 100.0 mg/kg/injection, schedule: Q01DX001 (ip), vehicle: other 93 % of control | dose: 200.0 mg/kg/injection, schedule: Q01DX001 (ip), vehicle: other 97 % of control | dose: 400.0 mg/kg/injection, schedule: Q01DX001 (ip), vehicle: other 97 % of control

CSc1nc(N)nc2c1ncn2C1CC(O)C(CO)O1 (stereo not drawn)
inactive: dose: 100.0 mg/kg/injection, schedule: Q01DX005 (ip), vehicle: saline 105 % of control and 112 % of control and 96 % of control | [9] 121 % of control | dose: 200.0 mg/kg/injection, schedule: Q01DX005 (ip), vehicle: saline 112 % of control and 121 % of control and 91 % of control | dose: 200.0 mg/kg/injection, schedule: Q01DX009 (ip), vehicle: saline 115 % of control | dose: 400.0 mg/kg/injection, schedule: Q01DX009 (ip), vehicle: saline 116 % of control

CC12CC3CC(C)(C1)CC(OCCN)(C3)C2
inactive: dose: 25.0 mg/kg/injection, schedule: Q01DX009 (ip), vehicle: saline 94 % of control | dose: 25.0 mg/kg/injection, schedule: Q04DX002 (ip), vehicle: saline 98 % of control | dose: 50.0 mg/kg/injection, schedule: Q01DX009 (ip), vehicle: saline 108 % of control | dose: 50.0 mg/kg/injection, schedule: Q04DX002 (ip), vehicle: saline 98 % of control | [9] 92 % of control | dose: 100.0 mg/kg/injection, schedule: Q04DX002 (ip), vehicle: saline 110 % of control and 117 % of control

CCOC(=O)c1cnc(=O)[nH]c1Nc1ccccc1Br
inactive: dose: 100.0 mg/kg/injection, schedule: Q04DX003 (ip), vehicle: gum acacia 95 % of control | dose: 200.0 mg/kg/injection, schedule: Q04DX003 (ip), vehicle: gum acacia 90 % of control | dose: 400.0 mg/kg/injection, schedule: Q04DX003 (ip), vehicle: gum acacia 95 % of control
